Here are results for 19 molecules from ChEMBL document CHEMBL1909046, “DrugMatrix in vitro pharmacology data”.

As a reminder, the IC50 is the concentration that gives 50% inhibition.

One test deals with T1, Glucocorticoid receptor (Homo sapiens, UniProt P04150).
T1 sequence (P04150 whole entry): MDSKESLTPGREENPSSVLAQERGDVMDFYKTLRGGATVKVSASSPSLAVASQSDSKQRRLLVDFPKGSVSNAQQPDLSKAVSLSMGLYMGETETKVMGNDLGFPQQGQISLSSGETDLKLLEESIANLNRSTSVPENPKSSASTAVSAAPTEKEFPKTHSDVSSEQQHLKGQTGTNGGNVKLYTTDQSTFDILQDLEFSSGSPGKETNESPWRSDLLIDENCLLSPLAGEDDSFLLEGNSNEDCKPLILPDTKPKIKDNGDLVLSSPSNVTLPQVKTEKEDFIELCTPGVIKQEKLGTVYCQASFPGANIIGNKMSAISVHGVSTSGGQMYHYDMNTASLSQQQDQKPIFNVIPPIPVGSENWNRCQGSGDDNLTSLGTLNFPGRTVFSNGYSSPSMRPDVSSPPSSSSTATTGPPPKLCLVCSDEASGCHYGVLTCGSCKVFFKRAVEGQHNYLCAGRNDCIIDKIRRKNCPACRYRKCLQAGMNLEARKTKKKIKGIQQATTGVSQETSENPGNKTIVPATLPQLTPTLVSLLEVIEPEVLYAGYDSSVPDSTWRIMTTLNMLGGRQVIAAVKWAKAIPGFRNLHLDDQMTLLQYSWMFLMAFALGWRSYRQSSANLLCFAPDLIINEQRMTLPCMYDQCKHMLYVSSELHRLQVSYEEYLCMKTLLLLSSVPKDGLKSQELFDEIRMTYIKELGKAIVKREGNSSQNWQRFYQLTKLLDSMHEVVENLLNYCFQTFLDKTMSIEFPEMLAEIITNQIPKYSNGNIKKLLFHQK
To be noted: hela s3.

A further test has as its target T2, Leukotriene C4 synthase (Cavia porcellus, UniProt A6XA80).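 Also: enzyme inhibition assay of leukotriene C4 synthase, using LTA4 as the substrate; in other assays of this panel Not Active means under 50% inhibition at 10 µM.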
T2 sequence (A6XA80 whole entry): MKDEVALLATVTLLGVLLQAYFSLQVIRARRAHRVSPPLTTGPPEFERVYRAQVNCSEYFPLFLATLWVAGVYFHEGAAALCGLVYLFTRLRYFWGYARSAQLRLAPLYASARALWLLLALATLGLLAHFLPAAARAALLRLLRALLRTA
It counts as tissue-based, Lung.

The target of the next test is T3, Endothelin-1 receptor (Homo sapiens, UniProt P25101). Also: in other assays of this panel Not Active means under 50% inhibition at 10 µM.
T3 sequence (P25101 whole entry): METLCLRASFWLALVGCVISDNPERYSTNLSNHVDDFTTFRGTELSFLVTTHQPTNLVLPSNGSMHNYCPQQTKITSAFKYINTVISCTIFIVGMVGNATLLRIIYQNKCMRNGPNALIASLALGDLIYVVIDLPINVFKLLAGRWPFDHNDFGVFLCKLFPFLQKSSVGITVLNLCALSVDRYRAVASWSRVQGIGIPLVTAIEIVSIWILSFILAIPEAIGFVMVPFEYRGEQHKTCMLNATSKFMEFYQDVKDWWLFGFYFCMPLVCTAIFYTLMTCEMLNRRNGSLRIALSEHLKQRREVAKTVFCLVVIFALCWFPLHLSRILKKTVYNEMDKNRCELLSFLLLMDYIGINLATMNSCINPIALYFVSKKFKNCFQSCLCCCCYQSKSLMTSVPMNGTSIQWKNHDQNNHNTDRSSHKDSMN
It is filed as cell membranes, Membrane. The following applies: cho-k1.

The target of test [1] is Delta-type opioid receptor (Homo sapiens, UniProt P41143). It counts as cell membranes, HEK293, Membrane. To be noted: hek293. Also: in other assays of this panel Not Active means under 50% inhibition at 10 µM.
Delta-type opioid receptor, sequence (P41143 whole entry): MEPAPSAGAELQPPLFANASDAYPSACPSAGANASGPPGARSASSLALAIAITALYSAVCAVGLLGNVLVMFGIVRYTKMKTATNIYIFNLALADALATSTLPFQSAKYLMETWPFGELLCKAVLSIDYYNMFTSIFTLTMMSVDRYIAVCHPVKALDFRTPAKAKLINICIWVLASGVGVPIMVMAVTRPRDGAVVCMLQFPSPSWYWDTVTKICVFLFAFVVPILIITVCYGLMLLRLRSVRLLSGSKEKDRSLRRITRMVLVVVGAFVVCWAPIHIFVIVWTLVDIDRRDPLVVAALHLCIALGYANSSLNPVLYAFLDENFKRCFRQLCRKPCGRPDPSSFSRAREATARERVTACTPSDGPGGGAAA
In the next test the target is T4, Substance-K receptor (Homo sapiens, UniProt P21452). Also: in other assays of this panel Not Active means under 50% inhibition at 10 µM.
T4 sequence (P21452 whole entry): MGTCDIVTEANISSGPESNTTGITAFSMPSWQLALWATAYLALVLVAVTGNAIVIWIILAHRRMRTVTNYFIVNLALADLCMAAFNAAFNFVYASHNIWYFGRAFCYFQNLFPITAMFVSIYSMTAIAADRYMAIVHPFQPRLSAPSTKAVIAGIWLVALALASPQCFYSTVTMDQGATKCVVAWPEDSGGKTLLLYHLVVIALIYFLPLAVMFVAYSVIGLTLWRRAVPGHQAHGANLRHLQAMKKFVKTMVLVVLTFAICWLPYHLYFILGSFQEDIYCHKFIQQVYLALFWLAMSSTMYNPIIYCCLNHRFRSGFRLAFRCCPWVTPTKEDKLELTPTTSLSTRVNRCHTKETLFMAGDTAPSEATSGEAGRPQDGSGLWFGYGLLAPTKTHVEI
It is filed as cell membranes, CHO, Membrane. The following applies: cho.

Test [2] deals with Tyrosine-protein kinase Lck (Homo sapiens, UniProt P06239). Nature of the test: DRUGMATRIX: Protein Tyrosine Kinase, LCK enzyme inhibition (substrate: Poly(Glu:Tyr)). It counts as cell-based, Insect cells. The following applies: insect cells; Not Active = under 50% inhibition at 10 µM.
Tyrosine-protein kinase Lck, sequence (P06239 whole entry): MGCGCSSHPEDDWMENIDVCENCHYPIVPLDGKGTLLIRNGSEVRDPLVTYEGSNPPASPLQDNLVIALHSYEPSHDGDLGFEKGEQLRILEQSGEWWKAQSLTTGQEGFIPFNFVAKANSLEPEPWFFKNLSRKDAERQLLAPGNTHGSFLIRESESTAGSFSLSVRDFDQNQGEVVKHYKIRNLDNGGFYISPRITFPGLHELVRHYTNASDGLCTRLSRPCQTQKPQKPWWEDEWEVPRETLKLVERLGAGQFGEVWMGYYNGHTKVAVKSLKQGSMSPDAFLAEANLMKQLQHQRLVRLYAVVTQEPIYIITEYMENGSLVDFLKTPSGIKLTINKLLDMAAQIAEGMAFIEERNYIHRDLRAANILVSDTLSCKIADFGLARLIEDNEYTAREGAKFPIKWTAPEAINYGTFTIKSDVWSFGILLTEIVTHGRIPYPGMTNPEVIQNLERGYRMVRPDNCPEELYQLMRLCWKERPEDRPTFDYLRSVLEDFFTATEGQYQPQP
The next test addresses Carbonic anhydrase 2 (Homo sapiens, UniProt P00918). Nature of the test: DRUGMATRIX: Carbonic Anhydrase II enzyme inhibition (substrate: 4-Nitrophenyl acetate (4-NPA)). It counts as tissue-based, Erythrocyte. To be noted: Not Active = under 50% inhibition at 10 µM.

Regarding `CC(C)c1c(C(=O)Nc2ccccc2)c(-c2ccccc2)c(-c2ccc(F)cc2)n1CC[C@@H](O)C[C@@H](O)CC(=O)O` [ATORVASTATIN], the IC50 result (on Glucocorticoid receptor; against Leukotriene C4 synthase; on Endothelin-1 receptor; in test [1]; at Substance-K receptor; in test [2]) was “Not Active” each time. Moreover, the IC50 result on Carbonic anhydrase 2 (erythrocyte) was “Not Active”.

As for `CC(=O)OC[C@H]1O[C@@H](n2ncc(=O)[nH]c2=O)[C@H](OC(C)=O)[C@@H]1OC(C)=O` [AZARIBINE], the 50% inhibitory concentration (IC50) result (against Glucocorticoid receptor; against Leukotriene C4 synthase; against Endothelin-1 receptor; in test [1]; on Substance-K receptor; in test [2]) was “Not Active” in each case. Also, the IC50 result against Carbonic anhydrase 2 (erythrocyte) is reported as “Not Active”.

In the case of `C[C@H]1[C@H](NC(=O)/C(=N\OC(C)(C)C(=O)O)c2csc(N)n2)C(=O)N1S(=O)(=O)O` [AZTREONAM], the half-maximal inhibitory concentration (IC50) entry (at Glucocorticoid receptor; at Leukotriene C4 synthase; against Endothelin-1 receptor; in test [1]; against Substance-K receptor; in test [2]) was “Not Active” in each case. For the same molecule, the half-maximal inhibitory concentration (IC50) entry on Carbonic anhydrase 2 (erythrocyte) is “Not Active”.

For `O=C(O)CCNC(=O)c1ccc(/N=N/c2ccc(O)c(C(=O)O)c2)cc1` [BALSALAZIDE], the IC50 result (on Glucocorticoid receptor; on Leukotriene C4 synthase; at Endothelin-1 receptor; in test [1]; against Substance-K receptor; in test [2]) was “Not Active” in each case. Also, at Carbonic anhydrase 2 (erythrocyte), the IC50 result is “Not Active”.

As for `COc1cc(OC)c(C(=O)CCCN2CCCC2)c(OC)c1` [BUFLOMEDIL], the concentration for half-maximal inhibition (IC50) entry (at Glucocorticoid receptor; against Leukotriene C4 synthase; at Endothelin-1 receptor; in test [1]; at Substance-K receptor; in test [2]) was “Not Active” in each case. For the same molecule, the IC50 entry against Carbonic anhydrase 2 (erythrocyte) was “Not Active”.

In the case of `Cn1c(=O)c2c(ncn2C)n(C)c1=O` [CAFFEINE], the IC50 result (on Glucocorticoid receptor; against Leukotriene C4 synthase; at Endothelin-1 receptor; in test [1]; against Substance-K receptor; in test [2]) was “Not Active” in each case. In addition, at Carbonic anhydrase 2 (erythrocyte), the IC50 entry is recorded as “Not Active”.

For `CO/N=C(\C(=O)N[C@@H]1C(=O)N2C(C(=O)O)=C(COC(C)=O)CS[C@H]12)c1csc(N)n1` [CEFOTAXIME], the IC50 entry (against Glucocorticoid receptor; on Leukotriene C4 synthase; on Endothelin-1 receptor; in test [1]; at Substance-K receptor; in test [2]) was “Not Active” in each case. Also, the IC50 entry on Carbonic anhydrase 2 (erythrocyte) is on record as “Not Active”.

In the case of `CNC1=Nc2ccc(Cl)cc2C(c2ccccc2)=[N+]([O-])C1` [CHLORDIAZEPOXIDE], the IC50 result (against Glucocorticoid receptor; against Leukotriene C4 synthase; against Endothelin-1 receptor; in test [1]; against Substance-K receptor; in test [2]) was “Not Active” throughout. Further, the IC50 entry against Carbonic anhydrase 2 (erythrocyte) is listed as “Not Active”.

For the molecule `Cc1cc(O)cc(C)c1Cl` [CHLOROXYLENOL], the concentration for half-maximal inhibition (IC50) entry (against Glucocorticoid receptor; at Leukotriene C4 synthase; against Endothelin-1 receptor; in test [1]; on Substance-K receptor; in test [2]) was “Not Active” in each case. In addition, the IC50 result at Carbonic anhydrase 2 (erythrocyte) was “Not Active”.

For the molecule `CCCNC(=O)NS(=O)(=O)c1ccc(Cl)cc1` [CHLORPROPAMIDE], the IC50 entry (against Glucocorticoid receptor; on Leukotriene C4 synthase; against Endothelin-1 receptor; in test [1]; against Substance-K receptor; in test [2]) was “Not Active” each time. Moreover, the IC50 result at Carbonic anhydrase 2 (erythrocyte) is “Not Active”.

Consider `NS(=O)(=O)c1cc(C2(O)NC(=O)c3ccccc32)ccc1Cl` (stereo not drawn) [CHLORTHALIDONE], for which the IC50 result (on Glucocorticoid receptor; against Leukotriene C4 synthase; against Endothelin-1 receptor; in test [1]; against Substance-K receptor; in test [2]) was “Not Active” in each case. On Carbonic anhydrase 2 (read-out: IC50), the IC50 came out at 677 nM.

With `O=C(O)CC(O)(CC(=O)O)C(=O)O` [CITRIC ACID], the concentration for half-maximal inhibition (IC50) entry (against Glucocorticoid receptor; at Leukotriene C4 synthase; against Endothelin-1 receptor; in test [1]; against Substance-K receptor; in test [2]) was “Not Active” each time. Moreover, the IC50 result against Carbonic anhydrase 2 (erythrocyte) is recorded as “Not Active”.

`CN1CCN(C(c2ccccc2)c2ccccc2)CC1` [CYCLIZINE]: the IC50 result (against Glucocorticoid receptor; at Leukotriene C4 synthase; against Endothelin-1 receptor; in test [1]; at Substance-K receptor; in test [2]) was “Not Active” in each case. At Carbonic anhydrase 2 (erythrocyte), the IC50 entry is reported as “Not Active”.

On to `CN1C[C@@H]2C[C@H]1CN2c1cc2c(cc1F)c(=O)c(C(=O)O)cn2C1CC1` [DANOFLOXACIN], for which the IC50 result (on Glucocorticoid receptor; against Leukotriene C4 synthase; at Endothelin-1 receptor; in test [1]; at Substance-K receptor; in test [2]) was “Not Active” in each case. Besides, the concentration for half-maximal inhibition (IC50) entry on Carbonic anhydrase 2 (erythrocyte) is “Not Active”.

Regarding `COc1cccc2c1C(=O)c1c(O)c3c(c(O)c1C2=O)C[C@@](O)(C(C)=O)C[C@@H]3O[C@H]1C[C@H](N)[C@H](O)[C@H](C)O1` [DAUNORUBICIN], the IC50 result (against Glucocorticoid receptor; on Leukotriene C4 synthase; at Endothelin-1 receptor; in test [1]; at Substance-K receptor; in test [2]) was “Not Active” each time. Also, the IC50 entry on Carbonic anhydrase 2 (erythrocyte) is reported as “Not Active”.

For `O=C(O)c1cc(-c2ccc(F)cc2F)ccc1O` [DIFLUNISAL], the IC50 entry (at Glucocorticoid receptor; against Leukotriene C4 synthase; on Endothelin-1 receptor; in test [1]; at Substance-K receptor; in test [2]) was “Not Active” each time. Moreover, at Carbonic anhydrase 2 (erythrocyte), the IC50 entry is given as “Not Active”.

In the case of `C[S+](C)[O-]` [DIMETHYL SULFOXIDE], the IC50 result (at Glucocorticoid receptor; at Leukotriene C4 synthase; against Endothelin-1 receptor; in test [1]; at Substance-K receptor; in test [2]) was “Not Active” each time. Besides, the half-inhibitory concentration (IC50) entry against Carbonic anhydrase 2 (erythrocyte) is on record as “Not Active”.

For the molecule `CC1=NN(c2ccccc2)C(=O)C1` [EDARAVONE], the IC50 result (at Glucocorticoid receptor; on Leukotriene C4 synthase; against Endothelin-1 receptor; in test [1]; at Substance-K receptor; in test [2]) was “Not Active” each time. Besides, the IC50 entry on Carbonic anhydrase 2 (erythrocyte) is recorded as “Not Active”.

Regarding `CC(C)C[C@H]1C(=O)N2CCC[C@H]2[C@]2(O)O[C@](NC(=O)[C@@H]3C=C4c5cccc6[nH]cc(c56)C[C@H]4N(C)C3)(C(C)C)C(=O)N12` [ERGOCRYPTINE], the IC50 entry (at Glucocorticoid receptor; against Leukotriene C4 synthase; against Endothelin-1 receptor; in test [1]; on Substance-K receptor; in test [2]) was “Not Active” throughout. Also, on Carbonic anhydrase 2 (erythrocyte), the IC50 result was “Not Active”.
